Results on five compounds are retold here after patent US6673834B2, “Hydroperylene derivatives” (priority 2001, dated 2004).

One series relates to thrombocytes. Nature of the series: Test for inhibition of thrombocyte aggregation (turbidimetric, Born; aggregometer PAP 4). It is filed as cell-based. As to conditions: read-out: IC50 (platelet aggregation). From the text: The inhibition of platelet aggregation can be measured, inter alia, by determining platelet aggregation turbimetrically as described by Born (Born, GV, Nature, 1962,194: 927-929).
(§1) Principle of the test: the method is based on the property that the optical density of a particle suspension depends on the […]. After a platelet suspension has been stimulated, the platelets begin to aggregate. This leads to the appearance of relatively large platelet aggregates and to an increase in light transmission. This increase is registered photometrically, and recorded in curve form, continuously. The degrees to which the thrombocytes can be aggregated, or to which this aggregation can be inhibited, can be deduced from the changes in light transmission. The method of staining cells with calcein was used for determining cytotoxicity (Hollo Z et al., Biochim Biophys Acta 11;1191(2):384-8, 1994). Living cells incorporate the substrate calcein acetoxymethyl ester (C-AM), which is hydrolyzed in the cells by nonspecific esterases. […] In the living cell, it is converted into the fluorescent hydrolysis product and the vitality of the cells can be measured on the basis of the fluorescence (λex:485 nm/λem:538 nm).
By way of example, Table 2 summarizes the inhibitory effects of some hydroperylene derivatives as IC50 values. The IC50 value indicates the concentration which inhibits thrombocyte aggregation by 50% under defined conditions.
Test for Inhibition of Thrombocyte Aggregation
The assay was carried out as follows:
Final concentration of activator: 0.05 U of thrombin/ml or 1 μg of collagen/ml
Aggregation in Aggregometer (PAP 4)
Cell number, 3×10^5 thrombocytes/μl
The blank value for the channels of the aggregometer is first of all adjusted using buffer. The thrombocytes are then pipetted into microtubes and, after the thrombocytes have been added, heated at 37° C. for a few minutes in the aggregometer. After a magnetic stirrer has been added to each reaction tube, the substances, and CaCl2, are added and a start is made in recording the course of the curve in the aggregometer. After 2 minutes of incubation, the activator, or buffer in the case of the control, is added. The course of the curve is then recorded for a further 6 min at 37° C. and at a stirrer speed of 1050 revolutions per minute.

In the next series the test system is cells. Nature of the series: Cytotoxicity by staining cells with calcein (calcein AM fluorescence). Type of series: cell-based. The settings on record: read-out: IC50 (toxicity).
Source text: as §1

The nature of series [1]: Solubility of thioperylenol. Type of series: physicochemical. An excerpt: (§2) The physicochemical and spectroscopic properties of thioperylenol can be summarized as follows:
(§3) Brownish crystals which are soluble in medium-polar and polar organic solvents and soluble in aqueous neutral buffers. Stable in neutral and mildly acidic, non-oxidizing medium but unstable in strongly acidic and strongly alkaline solution.

Series [2] in a line: Stability of thioperylenol in solution. It is filed as physicochemical.
Source text: as §2, §3

[3] abbreviates: concentration which inhibits thrombocyte aggregation by 50%, activator 0.05 U of thrombin/ml or 1 μg of collagen/ml, 37° C.
Setting [4] is: cell toxicity, calcein AM staining.

Like-named read-outs stand apart in the source and are kept apart here. Where only a bound is given, the exact number is not on record here.

As usually defined, the IC50 is the concentration needed to halve the response being measured. With `O=C1C[C@H](O)[C@@H]2c3c(ccc(O)c31)-c1ccc(O)c3c1[C@@]2(O)CCC3=O` [Altertoxin I], the half-inhibitory concentration (IC50) was 29 µM in the series with thrombocytes (setting [3]) and over 100 µM with cells (setting [4]).

`O=C1CC(SCC(O)C(=O)O)[C@]2(O)c3c(ccc(O)c31)-c1ccc(O)c3c1C2C1OC1C3O` (some centres unmarked) [Thioperylenol, thioperylenol]: the Solubility entry in series [1] (aqueous neutral buffers) was “soluble”; in series [1] (medium-polar and polar organic solvents) it was “soluble”. The Stability entry in series [2] (neutral and mildly acidic, non-oxidizing medium) was “Stable”; in series [2] (strongly acidic and strongly alkaline solution), “unstable”. Besides, the half-maximal inhibitory concentration (IC50) is 7.2 µM in the series with thrombocytes (Platelet, concentration which inhibits thrombocyte aggregation by 50%, activator 0.05 U of thrombin/ml or 1 μg of collagen/ml, 37° C.) and 61 µM in the series on cells (setting [4]).

For the compound `O=C1CCC2(O)c3c(ccc(O)c31)-c1ccc(O)c3c1C2C1OC1C3=O` (centres unmarked) [Altertoxin II], the IC50 is 2.6 µM in the series with thrombocytes (setting [3]) and 10 µM in the series with cells (setting [4]).

`O=C1C[C@@H](O)[C@H]2c3c(ccc(O)c31)-c1ccc(O)c3c1[C@]2(O)C=CC3=O` (stereo in doubt) [Alterperylenol]: the 50% inhibitory concentration (IC50) in the series on thrombocytes (Platelet) is 1.6 µM; with cells, over 100 µM.

On to Altertoxin III, for which the results for the IC50 in the series on thrombocytes (setting [3]) and in the series with cells (setting [4]) were 6.1 µM and 20 µM, respectively.
